Data taken from patent US11254686B1 (Corvus Pharmaceuticals, Inc., priority 2017, dated 2022).

Tests used:
adenosine A1 receptor = adenosine A1 receptor (Homo sapiens (Human), UniProt P30542); assay: Adenosine receptor activity assay (Table 1), A1 cAMP; assay type: cell-based
adenosine A2B receptor = adenosine A2B receptor (Homo sapiens (Human), UniProt P29275); assay: Adenosine receptor activity assay (Table 1), A2B activity; assay type: biochemical; details: for Ratio: A2A activity to A2B activity (A2A/A2B); for IC50: read-out: Ave A2B cAMP IC50
Chain of adenosine A2B receptor (P29275 whole entry): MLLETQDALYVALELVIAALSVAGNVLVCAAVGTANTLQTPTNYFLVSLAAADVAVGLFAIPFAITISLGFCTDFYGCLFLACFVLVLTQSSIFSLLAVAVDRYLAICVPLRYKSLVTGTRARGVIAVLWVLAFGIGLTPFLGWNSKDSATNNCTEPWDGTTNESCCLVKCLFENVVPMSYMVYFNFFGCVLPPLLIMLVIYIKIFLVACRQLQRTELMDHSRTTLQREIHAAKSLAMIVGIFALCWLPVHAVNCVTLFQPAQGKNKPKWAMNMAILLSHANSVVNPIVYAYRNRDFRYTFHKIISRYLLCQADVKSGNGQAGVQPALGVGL

adenosine A3 receptor = adenosine A3 receptor (Homo sapiens (Human), UniProt P0DMS8); assay: Adenosine receptor activity assay (Table 1), A3 cAMP; assay type: cell-based
Chain of adenosine A3 receptor (P0DMS8 whole entry): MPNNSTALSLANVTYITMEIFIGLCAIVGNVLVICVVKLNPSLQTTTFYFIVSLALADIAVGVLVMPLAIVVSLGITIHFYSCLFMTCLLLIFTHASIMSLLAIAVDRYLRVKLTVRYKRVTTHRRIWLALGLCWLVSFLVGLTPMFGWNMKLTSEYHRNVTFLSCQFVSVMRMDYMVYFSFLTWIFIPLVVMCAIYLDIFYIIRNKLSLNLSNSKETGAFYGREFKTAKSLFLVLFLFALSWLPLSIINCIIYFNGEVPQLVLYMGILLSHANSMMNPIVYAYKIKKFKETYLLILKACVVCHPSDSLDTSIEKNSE

adenosine A2A receptor = adenosine A2A receptor (Homo sapiens (Human), UniProt P29274); assay: Adenosine receptor activity assay (Table 1), A2A activity; assay type: biochemical; details: read-out: Ave A2A cAMP IC50
Chain of adenosine A2A receptor (P29274 whole entry): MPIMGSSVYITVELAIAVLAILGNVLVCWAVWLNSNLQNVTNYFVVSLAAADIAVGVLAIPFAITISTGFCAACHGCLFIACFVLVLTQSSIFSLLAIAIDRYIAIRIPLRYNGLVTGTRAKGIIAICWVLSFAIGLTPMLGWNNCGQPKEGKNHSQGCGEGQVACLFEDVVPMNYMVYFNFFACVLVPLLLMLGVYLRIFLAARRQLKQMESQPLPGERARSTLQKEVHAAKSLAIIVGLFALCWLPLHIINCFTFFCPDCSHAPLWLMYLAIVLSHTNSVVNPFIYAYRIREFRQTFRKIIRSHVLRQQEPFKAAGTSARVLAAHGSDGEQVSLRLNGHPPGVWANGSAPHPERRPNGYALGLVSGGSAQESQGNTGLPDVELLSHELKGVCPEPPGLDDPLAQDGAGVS

Chain of adenosine A1 receptor (P30542 whole entry): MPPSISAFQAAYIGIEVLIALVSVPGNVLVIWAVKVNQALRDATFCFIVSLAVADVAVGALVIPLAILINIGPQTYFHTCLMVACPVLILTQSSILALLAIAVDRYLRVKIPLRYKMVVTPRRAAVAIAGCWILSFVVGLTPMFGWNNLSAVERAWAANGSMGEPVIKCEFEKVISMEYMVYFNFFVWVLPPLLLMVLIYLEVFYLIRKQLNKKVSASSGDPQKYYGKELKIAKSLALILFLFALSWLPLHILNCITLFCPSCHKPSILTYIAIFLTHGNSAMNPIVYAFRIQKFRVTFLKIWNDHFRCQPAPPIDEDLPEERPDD

Row | IC50 (adenosine A1 receptor) | Ratio (adenosine A2B receptor) | IC50 (adenosine A2B receptor) | IC50 (adenosine A3 receptor) | IC50 (adenosine A2A receptor) | Structure (SMILES)
1 | 50 to 100 nM | 19.21 | < 10 nM | 10 to 50 nM | 100 to 500 nM | COc1cccc(CNC(=O)c2nc(N[C@@H](C)c3cncc(F)c3)nc3cc(C)sc23)n1 [Example Z374, (S)-2-((1-(5-Fluoropyridin-3-yl)ethyl)amino)-N-((6-methoxypyridin-2-yl)methyl)-6-methylthieno[3,2-d]pyrimidine-4-carboxamide]
2 | 50 to 100 nM | 56.67 | < 10 nM | 50 to 100 nM | 50 to 100 nM | Cc1cc2nc(N[C@@H](C)c3ccccn3)nc(C(=O)N3CCC3)c2s1 [Example Z284, (S)-Azetidin-1-yl(6-methyl-2-((1-(pyridin-2-yl)ethyl)amino)thieno[3,2-d]pyrimidin-4-yl)methanone]
3 | > 500 nM | 16.27 | 10 to 50 nM | > 500 nM | 100 to 500 nM | C[C@H](Nc1nc(C(=O)N2CC[C@@H](CO)C2)c2sccc2n1)c1cccnc1 [Example Z260, ((R)-3-(Hydroxymethyl)pyrrolidin-1-yl)(2-(((S)-1-(pyridin-3-yl)ethyl)amino)thieno[3,2-d]pyrimidin-4-yl)methanone]
4 | > 500 nM | 1.81 | 10 to 50 nM | > 500 nM | 10 to 50 nM | CO[C@H]1CCN(C(=O)c2nc(N[C@@H](C)c3ccccn3)nc3ccsc23)C1 [Example Z255, ((S)-3-Methoxypyrrolidin-1-yl)(2-(((S)-1-(pyridin-2-yl)ethyl)amino)thieno[3,2-d]pyrimidin-4-yl)methanone]
5 | 50 to 100 nM | 86.81 | < 10 nM | 50 to 100 nM | 50 to 100 nM | Cc1cc2nc(N[C@@H](C)c3cncc(F)c3)nc(C(=O)N3CCCC3)c2s1 [Example Z279, (S)-(2-((1-(5-Fluoropyridin-3-yl)ethyl)amino)-6-methylthieno[3,2-d]pyrimidin-4-yl)(pyrrolidin-1-yl)methanone]
6 | 50 to 100 nM | 53.12 | < 10 nM | 50 to 100 nM | 100 to 500 nM | Cc1cc2nc(N[C@@H](C)c3ccccn3)nc(C(=O)NCCO)c2s1 [Example Z353, (S)—N-(2-Hydroxyethyl)-6-methyl-2-((1-(pyridin-2-yl)ethyl)amino)thieno[3,2-d]pyrimidine-4-carboxamide]
7 | > 500 nM | 98.22 | 10 to 50 nM | 50 to 100 nM | > 500 nM | C[C@H](O)CNC(=O)c1nc(N[C@@H](C)c2cccnc2)nc2cc(C(F)(F)F)sc12 [Example Z347, N—((S)-2-Hydroxypropyl)-2-(((S)-1-(pyridin-3-yl)ethyl)amino)-6-(trifluoromethyl)thieno[3,2-d]pyrimidine-4-carboxamide]
8 | > 500 nM | 37.14 | < 10 nM | > 500 nM | 50 to 100 nM | Cc1cc2nc(N[C@@H](C)c3cncc(F)c3)nc(C(=O)N3CC[C@H](CO)C3)c2s1 [Example Z309, (2-(((S)-1-(5-Fluoropyridin-3-yl)ethyl)amino)-6-methylthieno[3,2-d]pyrimidin-4-yl)((S)-3-(hydroxymethyl)pyrrolidin-1-yl)methanone]
9 | 50 to 100 nM | 50.96 | < 10 nM | 50 to 100 nM | > 500 nM | Cc1cc2nc(N[C@@H](C)c3cncc(F)c3)nc(C(=O)NC[C@@H]3CCOC3)c2s1 [Example Z389, 2-(((S)-1-(5-Fluoropyridin-3-yl)ethyl)amino)-6-methyl-N—(((S)-tetrahydrofuran-3-yl)methyl)thieno[3,2-d]pyrimidine-4-carboxamide]
10 | > 500 nM | 31.95 | 10 to 50 nM | > 500 nM | 100 to 500 nM | C[C@H](Nc1nc(C(=O)N2CC[C@H](CO)C2)c2sccc2n1)c1cccnc1 [Example Z259, ((S)-3-(Hydroxymethyl)pyrrolidin-1-yl)(2-(((S)-1-(pyridin-3-yl)ethyl)amino)thieno[3,2-d]pyrimidin-4-yl)methanone]
11 | > 500 nM | 57.61 | 10 to 50 nM | > 500 nM | > 500 nM | C[C@H](Nc1nc(C(=O)N2CC[C@H](O)C2)c2sccc2n1)c1cncc(Cl)c1 [Example Z236, (2-(((S)-1-(5-Chloropyridin-3-yl)ethyl)amino)thieno[3,2-d]pyrimidin-4-yl)((S)-3-hydroxypyrrolidin-1-yl)methanone]
12 | 50 to 100 nM | 50.12 | 10 to 50 nM | > 500 nM | > 500 nM | C[C@H](Nc1nc(C(=O)NCCO)c2sccc2n1)c1cncc(Cl)c1 [Example Z291, (S)-2-((1-(5-Chloropyridin-3-yl)ethyl)amino)-N-(2-hydroxyethyl)thieno[3,2-d]pyrimidine-4-carboxamide]

The next lines start with the molecule.

Row | Structure (SMILES) | IC50 (adenosine A1 receptor) | Ratio (adenosine A2B receptor) | IC50 (adenosine A2B receptor) | IC50 (adenosine A3 receptor) | IC50 (adenosine A2A receptor)
13 | CNc1cc2nc(N[C@@H](C)c3cccnc3)nc(C(=O)N3CC(O)C3)c2s1 [Example Z240, (S)-(3-Hydroxyazetidin-1-yl)(6-(methylamino)-2-((1-(pyridin-3-yl)ethyl)amino)thieno[3,2-d]pyrimidin-4-yl)methanone] | > 500 nM | 23.69 | 10 to 50 nM | > 500 nM | > 500 nM
14 | Cc1cc2nc(N[C@@H](C)c3cncc(F)c3)nc(C(=O)NCCc3ccc(O)cc3)c2s1 [Example Z373, (S)-2-((1-(5-Fluoropyridin-3-yl)ethyl)amino)-N-(4-hydroxyphenethyl)-6-methylthieno[3,2-d]pyrimidine-4-carboxamide] | 50 to 100 nM | 75.08 | < 10 nM | 10 to 50 nM | 100 to 500 nM
15 | CNc1cc2nc(N[C@@H](C)c3ccccn3)nc(C(=O)N3CC(O)C3)c2s1 [Example Z221, (S)-(3-Hydroxyazetidin-1-yl)(6-(methylamino)-2-((1-(pyridin-2-yl)ethyl)amino)thieno[3,2-d]pyrimidin-4-yl)methanone] | > 500 nM | 52.95 | 10 to 50 nM | 50 to 100 nM | > 500 nM
16 | Cc1cc2nc(N[C@@H](C)c3ccccn3)nc(C(=O)NC3CCC3)c2s1 [Example Z352, (S)—N-Cyclobutyl-6-methyl-2-((1-(pyridin-2-yl)ethyl)amino)thieno[3,2-d]pyrimidine-4-carboxamide] | 50 to 100 nM | 9.52 | < 10 nM | 50 to 100 nM | 10 to 50 nM
17 | C[C@H](Nc1nc(C(=O)N[C@H]2CC[C@@H](O)C2)c2sccc2n1)c1cncc(F)c1 [Example Z329, 2-(((S)-1-(5-Fluoropyridin-3-yl)ethyl)amino)-N-((1S,3R)-3-hydroxycyclopentyl)thieno[3,2-d]pyrimidine-4-carboxamide] | 50 to 100 nM | 26.05 | < 10 nM | 50 to 100 nM | 10 to 50 nM
18 | C[C@H](Nc1nc(C(=O)N2CCCC2)c2sc(N)cc2n1)c1cncc(F)c1 [Example Z223, (S)-(6-Amino-2-((1-(5-fluoropyridin-3-yl)ethyl)amino)thieno[3,2-d]pyrimidin-4-yl)(pyrrolidin-1-yl)methanone] | > 500 nM | 158.10 | < 10 nM | > 500 nM | 100 to 500 nM
19 | C[C@H](Nc1nc(C(=O)NC[C@@H](C)O)c2sccc2n1)c1cncc(Cl)c1 [Example Z293, 2-(((S)-1-(5-Chloropyridin-3-yl)ethyl)amino)-N—((R)-2-hydroxypropyl)thieno[3,2-d]pyrimidine-4-carboxamide] | 50 to 100 nM | 41.78 | < 10 nM | 50 to 100 nM | 100 to 500 nM
20 | CNc1cc2nc(N[C@@H](C)c3cncc(F)c3)nc(C(=O)N3CC(OC)C3)c2s1 [Example Z243, (S)-(2-((1-(5-Fluoropyridin-3-yl)ethyl)amino)-6-(methylamino)thieno[3,2-d]pyrimidin-4-yl)(3-methoxyazetidin-1-yl)methanone] | > 500 nM | 112.45 | < 10 nM | 50 to 100 nM | 100 to 500 nM
21 | C[C@H](Nc1nc(C(=O)N2CCCC2)c2sc(C(F)(F)F)cc2n1)c1cccnc1 [Example Z327, (S)-(2-((1-(Pyridin-3-yl)ethyl)amino)-6-(trifluoromethyl)thieno[3,2-d]pyrimidin-4-yl)(pyrrolidin-1-yl)methanone] | > 500 nM | 143.99 | < 10 nM | > 500 nM | > 500 nM
22 | CC(=O)N[C@H]1CCN(C(=O)c2nc(N[C@@H](C)c3cncc(F)c3)nc3cc(C)sc23)C1 [Example Z383, N—((S)-1-(2-(((S)-1-(5-Fluoropyridin-3-yl)ethyl)amino)-6-methylthieno[3,2-d]pyrimidine-4-carbonyl)pyrrolidin-3-yl)acetamide] | > 500 nM | 55.83 | 10 to 50 nM | 10 to 50 nM | > 500 nM
23 | C[C@H](Nc1nc(C(=O)N2CCC2)c2sc(N)cc2n1)c1cncc(F)c1 [Example Z241, (S)-(6-Amino-2-((1-(5-fluoropyridin-3-yl)ethyl)amino)thieno[3,2-d]pyrimidin-4-yl)(azetidin-1-yl)methanone] | > 500 nM | 78.77 | < 10 nM | > 500 nM | 50 to 100 nM
24 | Cc1cc2nc(N[C@@H](C)c3cccnc3)nc(C(=O)NC[C@H](C)O)c2s1 [Example Z328, N—((S)-2-Hydroxypropyl)-6-methyl-2-(((S)-1-(pyridin-3-yl)ethyl)amino)thieno[3,2-d]pyrimidine-4-carboxamide] | > 500 nM | 107.75 | < 10 nM | 50 to 100 nM | 100 to 500 nM
